Measured values: patent publication US20240218333A1, “GENERATING QUIESCENT HEPATIC STELLATE CELLS AND THEIR USE IN LIVER MODELS” (The Cleveland Clinic Foundation, priority 2022, published 2024)

Experiments:
Type in all cases: cell-based, human
[1] = tested on: hPSC-derived and primary HSCs; assay: Cell migration (scratch) assay; conditions: 48 hrs
PNPLA3^WT liver cultures = assay: IL6 supplementation of liver cultures
Experimental: FIG. 15. Elevated IL6/STAT3 activity mediates the enhanced susceptibility to NAFLD phenotypes in PNPLA3^I148M liver cultures (A). Analysis of IL6 by ELISA in the supernatant of shRNA control (Ctrl) or sh-IL6 liver cultures maintained in lipotoxic condition for two weeks. Shown are mean±SD from 3 independent experiments. (B). From the experiment in (A), the transcript levels of CHI3L1 and CXCL10 in purified macrophages were analyzed by RT-qPCR. Shown are mean±SD from 3 independent experiments. (C-D). From the experiment in (A), HSCs were purified and subject to western blot analysis of STAT3 and phosphorylated STAT3 (T705) (C), and to RT-qPCR analysis of the transcript levels of inflammatory cytokine CCL5 and quiescent marker PPARG (D). For western blot, RPS11 was used as a loading control. For RT-qPCR, shown are mean±SD from 3 independent experiments. (E-H). The isogenic pair of liver cultures were maintained in lipotoxic condition for two weeks in the presence of either isotype control antibody (Ctrl) or IL6 neutralizing antibody (nIL6 Ab, 100 ng/ml). Individual cells were purified from these liver cultures and subject to RT-qPCR analysis of lipogenic-associated enzyme genes ACC1 and FASN in hepatocytes (E) and inflammatory cytokine CHI3L1 in macrophages (F), western blot analysis of HSC activation markers FN, COL1A1, and ACTA2 (G), and phosphorylated STAT3 (H) in HSCs. For western blot, RPS11 was used as a loading control. For RT-qPCR, shown are mean±SD from 3 independent experiments. (I-J). PNPLA3^WT liver cultures were treated with either healthy or lipotoxic condition for 5 days and then IL6 (100 pg/ml) was added to one set of lipotoxic treated cultures for additional 2 days. Hepatocytes were purified and subject to analysis for triacylglycerol (TAG) level (I), transcript levels of ACC1 and FASN (J) by RT-qPCR. For TAG quantification, shown are mean±SD for 4 independent experiments; for RT-qPCR, shown are mean±SD from 3 independent experiments. Statistical analysis was performed using a two-tailed unpaired t-test with Welch's corrections or One-way ANOVA/Tukey's multiple comparisons test to calculate exact p-values.
As a complementary approach, we determined if IL6 was sufficient to enhance NAFLD susceptibility in lipotoxic conditions by supplementing IL6 in PNPLA3^WT cultures to a level similar to that of PNPLA3^I148M cultures. We began after 5 days of lipotoxic exposure when disease phenotypes begin to manifest (FIG. 5B) and only maintained liver cultures for 2 more days to minimize the compounded effect of continuous IL6 secretion on our observations. […] Changes in glucose secretion were not detected, however, likely due to the brevity of IL6 supplementation.
Intracellular triacylglycerol levels were analyzed for hPSC-derived HEPs purified from different conditions using commercial kits (Promega) per the manufacturer's instructions.

hPSC-derived HSCs = assay: In vitro activation of quiescent HSCs; conditions: for activation of hPSC-HSCs (COL1A1, FN, ACTA2 western blot): TGFβ1 5 ng/ml, FBS 10%, PDGF 30 ng/ml, 72 hrs
[2] = tested on: hPSC-derived multicellular liver culture; assay: LPS treatment of multicellular liver culture
From the text: FIG. 2. Characterization of the multicellular liver culture. (A) Albumin secretion from three-cell (HEP/HSC/Mac), two-cell (HEP/HSC), and HEP monoculture, n=3. (B) Analysis of CYP3A4 and CYP2B6 transcripts in hepatocytes, n=4. (C) Analysis of LRAT transcript in HSCs from three-cell (HSC/HEP/Mac), two-cell (HSC/HEP, HSC/Mac) and HSC monoculture, n=4. (D) Staining of lipid droplets, hepatocytes (ALB), and HSCs (PCDH7). (E) Analysis of IL10 transcript in individual cell-type at three-weeks post-coculture, n=4. (F) Analysis of IL6 and TNF transcripts in macrophages, n=4. Positive control: IFNγ-treated macrophages. (G) Cytokines analysis in liver cultures treated with LPS (500 ng/ml) or control, with or without macrophages, n=4. Data are mean±S.D; Student's t-test (two-tailed) with Welch's corrections (B); One-way ANOVA with Tukey's multiple comparisons test (A, C, E-G).
FIG. 10. Characterization of multicellular liver culture. (A). Transcript levels of PPARG were analyzed in purified HSCs from the hPSC-derived liver cultures with three-cell (HSC, HEP, and Mac), two-cell (HSC and HEP, HSC and Mac) and HSC monoculture at the indicated time points post co-culture by RT-qPCR. […] Transcript levels of IL10 and macrophages marker CD163 were analyzed in purified macrophages from the hPSC-derived liver cultures with three-cell (HSC, HEP, and Mac) and two-cell (Mac and HEP, Mac and HSC) by RT-qPCR. […] HSC activation markers FN and COL1A1 were analyzed by western blot in HSCs purified from three-cell (HEP, HSC and Mac) and two-cell (HSC and HEP, HSC and Mac) liver cultures treated with LPS (100 ng/ml) for one week. […] Transcript levels of TGFB1 and IL1B in pooled cells from the liver cultures of three-cell (HSC, HEP, and Mac) and two-cell (HSC and HEP) were analyzed at one week post LPS (100 ng/ml) treatment by RT-qPCR. […] Transcript levels of IL1B and TGFB1 in purified individual cells from liver cultures treated with either vehicle control or LPS (100 ng/ml) for one week were analyzed by RT-qPCR. Fold changes were calculated by normalized to individual cells treated with vehicle control. […]

[3] = tested on: Kupffer cells and hPSC-macrophages; assay: Stimulation of macrophages, cytokine transcripts by RT-qPCR; conditions: LPS 100 ng/ml, 12 hrs
[4] = lipotoxic 5 days, then IL6 100 pg/ml for 2 days

For `C[C@@H](N)[C@H]1CC[C@H](C(=O)Nc2ccncc2)CC1` [Y-27632, reference compound], the “motility of activated hPSC-HSCs (closure distance)” value ([1]; Y-27632 20 μM) was “markedly inhibited”.

For “IL6: interleukin 6, cytokine supplemented to liver cultures”, the “regulation of genes that drive the GO results of I148M homozygous patients” value (PNPLA3^WT liver cultures; IL6-treated liver cultures) was “readily regulated”, the “activation of HSCs from PNPLA3^WT cultures” value (PNPLA3^WT liver cultures; IL6 addition under lipotoxic conditions) was “dramatically activated” and the “changes in glucose secretion” value (PNPLA3^WT liver cultures; [4]) was “not detected”. The “intracellular TAG levels in PNPLA3^WT hepatocytes” value (PNPLA3^WT liver cultures; [4]) was “increased” and the “lipogenesis-associated enzyme expression in PNPLA3^WT hepatocytes” value (PNPLA3^WT liver cultures; [4]) was “increased”.

For “TGFβ1: transforming growth factor beta 1, pro-fibrotic stimulus”, the “activation of hPSC-HSCs (COL1A1, FN, ACTA2 western blot)” value (hPSC-derived HSCs) was “clearly activated” and the “motility of hPSC-HSCs (closure distance)” value ([1]; activating stimulus, similar to pHSCs) was “enhanced motility”.

lipopolysaccharide [LPS] was tested, and the “cytokine induction in hPSC-HSCs (IL6, CXCL10 transcripts)” value (hPSC-derived HSCs; LPS 500 ng/ml, 12 hrs) was “induced cytokine”, the “HSC activation markers in liver culture” value ([2]; LPS 100 ng/ml, one week) was “elevated activation markers” and the “cytoplasmic lipid droplets in HSCs in liver culture” value ([2]; LPS 100 ng/ml, one week) was “lost cytoplasmic lipid droplets”. The “IL1β and TGFβ1 levels produced by liver cultures” value ([2]; LPS treatment (500 ng/ml, FIG. 2G)) was “much higher levels” and the “inflammatory cytokine transcription in macrophages (CXCL10, IL6, IL1B)” value [3] was “transcribed inflammatory cytokines”.

B1: PDGF: platelet-derived growth factor, pro-fibrotic stimulus (protein, UniProt P01127 82-190, looked up)
Platelet-derived growth …: SLGSLTIAEPAMIAECKTRTEVFEISRRLIDRTNANFLVWPPCVEVQRCSGCCNNRNVQCRPTQVQLRPVQVRKIEIVRKKPIFKKATVTLEDHLACKCETVAAARPVT
modifications: homodimer PDGF-BB
notes: platelet-derived growth factor, pro-fibrotic stimulus
For B1, the “activation of hPSC-HSCs (COL1A1, FN, ACTA2 western blot)” value (hPSC-derived HSCs) was “clearly activated”.
